What all share (type): biochemical, Epilobium ciliatum
Experiment [1] concerns the target T1, glutamine synthetase (GS), R1 biotype.
T1 construct: gene GS1; native isoenzymes in crude leaf protein extract (rosette stage); isoforms not resolved; described as glufosinate-sensitive
The experiment is described as follows: GS activity, crude leaf protein extract. Conditions: read-out: I50.

Experiment [2] deals with T2, glutamine synthetase (GS), S biotype.
T2 construct: gene GS1; native isoenzymes in crude leaf protein extract (rosette stage); isoforms not resolved
The experiment is described as follows: GS activity, crude leaf protein extract. Conditions: read-out: I50.

Experiment [3] has as its target T3, glutamine synthetase (GS), R2 biotype.
T3 construct: gene GS1; native isoenzymes in crude leaf protein extract (rosette stage)
The experiment is described as follows: GS activity, crude leaf protein extract. The following applies: stated gain, read-out: I50.

In experiment [4] the test system is T4, acetolactate synthase (ALS), S biotype.
T4 construct: native enzyme in de-salted crude extract of young leaves
The experiment is described as follows: ALS activity, colorimetric acetoin at […] nm, de-salted leaf extract. Conditions: read-out: I50.

SMILES strings stand for the structures.

Consider `CP(=O)(O)CCC(N)C(=O)O` (stereo not shown) [glufosinate], for which the IC50 is 25.8 µM in experiment [1], 18.5 µM in experiment [2] and 1250 µM in experiment [3].
On to `COc1cc(OC)nc(NC(=O)NS(=O)(=O)c2ncccc2C(F)(F)F)n1` [flazasulfuron], for which, in experiment [4], the IC50 was 30.9 µM.

The record behind these values is article PMC5985439, “Multiple Resistance Evolution in Bipyridylium-Resistant Epilobium ciliatum After Recurrent Selection” (Frontiers in Plant Science, 2018).
